Residues, ends and D or L forms follow the SMILES beside them. *: point of attachment. Cbz = O=C(OCc1ccccc1)*
Experiments:
Rap1 = Rap1 inhibition experiment, R-VEC tube formation; type: cell-based, human; details: R-VECs, 10 μM, 4 weeks
Description: Tube formation assays for endothelial cells with or without ETV2 were set up in 24 wells as described above. The next day, Rap1 inhibitor (GGTI-298, Tocris) resuspended in DMSO was added to the wells at a 1:1000 dilution at the final concentration of 10 μM, while the same amount of DMSO was added to the control wells. The inhibitor and media were changed every other day for 4 weeks. Images were obtained and calculated as described above at 1 week and 4 week time points.

ETV2 protein levels = experiment: Proteasome inhibition experiment in R-VEC tubes; type: cell-based, human; details: R-VEC tubes at stabilization stage (4 weeks), 20 μM for 6 hrs vs DMSO, Western blot
Description: Cells were lysed into 1×SDS loading buffer (50 mM Tris-HCl pH 6.8, 5% beta-mercaptoethanol, 2% SDS, 0.01% bromophenol blue, 10% glycerol) followed by sonication (Bioruptor, 2×30 seconds at high setting). Proteins were solved on 5-15% gradient Tris-glycine SDS-PAGE and semi-dry transferred to nitrocellulose membranes. The following primary antibodies were used at indicated dilutions: Rap1 (CST, #2399, 1:1,000); RASGRP3 (CST, #3334, 1:1,000), GAPDH (CST, #5174, 1:10,000); AKT (CST, 34685, 1:5,000); p-S473-Akt (CST, #4060, 1:2,000); ETS1 (CST, #14069, 1,000); and ETV2 (Abcam, ab181847, 1:1,000). HRP-conjugated secondary antibodies and the ECL Prime Western Blotting System (GE Healthcare, RPN2232) were then used. Chemiluminescent signals were captured with a digital camera (Kindle Biosciences) and images of protein bands taken for quantification using ImageJ.
R-VEC vessels were prepared on Matrigel as described above. At stabilization stage (4 weeks), R-VEC tubes were treated with either 20 μM of MG132 (Selleck Chemicals) or DMSO for 6 hrs. The media was removed and the wells were washed once with PBS. R-VEC tubes were then incubated in a solution of 2 mg/ml Dispase (Sigma) for 45 mins at 37° C. to dissociate the tubes. 20 μM of MG132 (Selleck Chemicals) or DMSO was continuously provided during the dissociation period. […]

Row | Structure (SMILES) | lumen (Rap1; confocal and electron microscopy) | vessel formation (Rap1; vs DMSO) | ETV2 protein levels restored (ETV2 protein levels)
1 | COC(=O)[C@H](CC(C)C)NC(=O)c1ccc(NC[C@@H](N)CS)cc1-c1cccc2ccccc12 [GGTI298] | no lumen was present | significantly reduced | 
2 | CC(C)C[C@@H](C=O)NC(=O)[C@H](CC(C)C)NC(=O)[C@H](CC(C)C)NC(=O)OCc1ccccc1 [MG132] (Cbz-Leu-Leu-Leu-aldehyde) |  |  | six-fold
